What is called IC50 is the concentration at which inhibition is half-maximal.

20 compounds from patent US20150080438A1, “6,7-Dihydro-5H-benzo[7]annulene derivatives, processes for their preparation, pharmaceutical products comprising them and their use for preparing medicaments” (Bayer Intellectual Property GmbH, priority 2011, published 2015) can be followed below.

Experiment [1] concerns uterus growth induced by 17β-estradiol. Put plainly: Anti-uterus growth test in the adult rat. The conditions noted are these: ovariectomized adult rat, percentage inhibition of uterus growth; for inhibition in vivo at 0.3 mg/kg: sc, 0.3 mg/kg s.c. d1-d3 with 1.5 μg/kg/day 17β-estradiol, read-out: Anti-oestrogenic activity in vivo in % at a dose of 0.3 mg/kg (rat). The format is in vivo. From the text: The uterus of oestrogen-substituted rats can be used as a test model for detecting a direct action of substances with anti-oestrogenic properties. The parameter of oestrogenic action is estradiol-induced uterus growth in rats, which is inhibited by simultaneous administration of a substance with anti-oestrogenic action. The experimental animals (n=5-6 animals/group) were ovariectomized before the start of the test, to rule out the influence of endogenous oestrogens. After a phase of 6 to 10 days, the test substances are administered s.c. on 3 consecutive days (d1-d3) in combination with a substitution dose of 1.5 μg/kg/day of 17β-estradiol. 17β-estradiol alone serves as positive control, and the excipients serve as negative control. On day 4 (d4) the animals are killed, and the uteri and vaginae are removed and weighed. The organ weights are converted to mg/100 g body weight, then the mean value and the standard deviation are calculated for each dosage. The inhibition of uterus or vaginal growth induced by 17β-estradiol is shown as percentage inhibition. The selected claimed substances were investigated in adult female rats as described for their anti-oestrogenic, inhibitory action on the weight of the uterus. At the dosage used, the substances show a marked anti-oestrogenic action in vivo (Table 3 and Table 4).

Another experiment deals with T1, oestrogen receptor (ER) (Homo sapiens, UniProt P03372).
T1 construct: These MVLN cells express, along with the functional oestrogen receptor (ER), a reporter construct; endogenous in cells; host or cells: MVLN cells (MCF7 derivative with ER-responsive luciferase reporter)
T1 sequence (P03372 1-595): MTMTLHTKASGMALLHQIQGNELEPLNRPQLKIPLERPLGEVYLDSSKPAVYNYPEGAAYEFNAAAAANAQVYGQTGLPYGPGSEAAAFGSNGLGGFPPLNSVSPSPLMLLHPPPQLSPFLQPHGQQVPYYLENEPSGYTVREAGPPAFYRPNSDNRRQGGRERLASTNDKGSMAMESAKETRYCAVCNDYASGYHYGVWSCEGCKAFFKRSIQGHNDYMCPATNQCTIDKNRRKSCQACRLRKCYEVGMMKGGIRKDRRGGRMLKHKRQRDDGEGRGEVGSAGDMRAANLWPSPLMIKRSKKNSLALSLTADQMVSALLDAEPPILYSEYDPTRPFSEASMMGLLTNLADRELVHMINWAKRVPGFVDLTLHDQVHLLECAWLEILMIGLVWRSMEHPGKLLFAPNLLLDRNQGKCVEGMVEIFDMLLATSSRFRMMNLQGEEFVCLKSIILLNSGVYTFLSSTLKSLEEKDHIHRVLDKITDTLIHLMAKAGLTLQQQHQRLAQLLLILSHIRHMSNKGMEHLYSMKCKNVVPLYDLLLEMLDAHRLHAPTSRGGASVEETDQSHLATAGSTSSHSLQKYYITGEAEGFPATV
Put plainly: Anti-oestrogenic action in MVLN cells (inhibition of estradiol-induced luciferase, transactivation antagonism). It counts as cell-based. The following applies: inhibition of estradiol-induced luciferase activity, read-out: Anti-oestrogenic action in vitro: MVLN transactivation antagonism IC50. Summed up:
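MCF7-derived MVLN cells carrying an ER-driven luciferase reporter; test compounds applied with estradiol, and anti-oestrogenic action scored as inhibition of the estradiol-induced luciferase signal.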

Consider `CN(CCCCCC1=C(c2cccc(O)c2)CCCc2cc(O)ccc21)CCCC[S+]([O-])CCCC(F)(F)C(F)(F)F` (racemic) [Example 6, 8-(3-Hydroxyphenyl)-9-[5-(methyl{4-[(RS)-(4,4,5,5,5-pentafluoropentyl)sulphinyl]butyl}amino)pentyl]-6,7-dihydro-5H-benzo[7]annulen-3-ol], for which, in experiment [1] (1 mg/kg s.c. d1-d3 with 1.5 μg/kg/day 17β-estradiol), the “Anti-oestrogenic activity in vivo in % at a dose of 1 mg/kg (rat)” value came out at 64%. Further, in experiment [1], the inhibition in vivo at 0.3 mg/kg amounted to 22%. Further, the IC50 at oestrogen receptor (ER) amounted to 4 nM. Regarding `CN(CCCCCCC1=C(c2cccc(S(C)(=O)=O)c2)CCCc2cc(O)ccc21)CCC[S+]([O-])CCCC(F)(F)C(F)(F)F` (racemic) [Example 21, 8-(3-Mesylphenyl)-9-[6-(methyl{3-[(RS)-(4,4,5,5,5-pentafluoropentyl)sulphinyl]propyl}amino)hexyl]-6,7-dihydro-5H-benzo[7]annulen-3-ol], the inhibition in vivo at 0.3 mg/kg in experiment [1] stood at 37%. Also, the IC50 on oestrogen receptor (ER) worked out at 5 nM.

Turning to `CN(CCCCCC1=C(c2ccc(O)c(F)c2)CCCc2cc(O)ccc21)CCC[S+]([O-])CCCC(F)(F)C(F)(F)F` (racemic) [Example 37, 8-(3-Fluoro-4-hydroxyphenyl)-9-[5-(methyl{3-[(RS)-(4,4,5,5,5-pentafluoropentyl)sulphinyl]propyl}amino)pentyl]-6,7-dihydro-5H-benzo[7]annulen-3-ol], the inhibition in vivo at 0.3 mg/kg in experiment [1] is 59%. For the same compound, at oestrogen receptor (ER), the concentration for half-maximal inhibition (IC50) was found to be 1 nM.

As to `COCCCN(CCCCCCC1=C(c2cccc(O)c2)CCCc2cc(O)ccc21)CCCS(=O)(=O)CCCC(F)(F)C(F)(F)F` [Example 107, 8-(3-Hydroxyphenyl)-9-{6-[(3-methoxypropyl){3-[(4,4,5,5,5-pentafluoropentyl)sulphonyl]propyl}amino]hexyl}-6,7-dihydro-5H-benzo[7]annulen-3-ol], on oestrogen receptor (ER), the concentration for half-maximal inhibition (IC50) was 3 nM. Regarding `CN(CCCCCCC1=C(c2ccccc2)CCCc2c1ccc(O)c2Cl)CCCCS(=O)(=O)CCC(F)(F)F` [Example 109, 4-Chloro-9-[6-(methyl{4-[(3,3,3-trifluoropropyl)sulphonyl]butyl}amino)hexyl]-8-phenyl-6,7-dihydro-5H-benzo[7]annulen-3-ol], at oestrogen receptor (ER), the half-maximal inhibitory concentration (IC50) is 87 nM. The same measure, in the same setting: to `CN(CCCCCCC1=C(c2ccc(F)c(O)c2)CCCc2cc(O)ccc21)CCCCS(=O)(=O)CCC(F)(F)F` [Example 110, 8-(4-Fluoro-3-hydroxyphenyl)-9-[6-(methyl{4-[(3,3,3-trifluoropropyl)sulphonyl]butyl}amino)hexyl]-6,7-dihydro-5H-benzo[7]annulen-3-ol] belongs 5 nM; to `CN(CCCCCC1=C(c2ccccc2)CCCc2cc(O)ccc21)CCCCS(=O)(=O)CCC(F)(F)F` [Example 111, 9-[5-(Methyl{4-[(3,3,3-trifluoropropyl)sulphonyl]butyl}amino)pentyl]-8-phenyl-6,7-dihydro-5H-benzo[7]annulen-3-ol], 250 nM. Still for that read-out and setting: to `CN(CCCCCC1=C(c2cccc(O)c2)CCCc2cc(O)ccc21)CCCCS(=O)(=O)CCC(F)(F)F` [Example 112, 8-(3-Hydroxyphenyl)-9-[5-(methyl{4-[(3,3,3-trifluoropropyl)sulphonyl]butyl}amino)pentyl]-6,7-dihydro-5H-benzo[7]annulen-3-ol] belongs 45 nM. Still for that read-out and setting: in the case of `CN(CCCCCCC1=C(c2cccc(O)c2)CCCc2cc(O)ccc21)CCCCS(=O)(=O)CCC(F)(F)F` [Example 113, 8-(3-Hydroxyphenyl)-9-[6-(methyl{4-[(3,3,3-trifluoropropyl)sulphonyl]butyl}amino)hexyl]-6,7-dihydro-5H-benzo[7]annulen-3-ol] it was 2 nM. As to `CN(CCCCCCC1=C(c2ccc(F)c(O)c2)CCCc2c1ccc(O)c2F)CCCS(=O)(=O)CCCC(F)(F)C(F)(F)F` [Example 114, 4-Fluoro-8-(4-fluoro-3-hydroxyphenyl)-9-[6-(methyl{3-[(4,4,5,5,5-pentafluoropentyl)sulphonyl]propyl}amino)hexyl]-6,7-dihydro-5H-benzo[7]annulen-3-ol], the IC50 on oestrogen receptor (ER) is 20 nM.

On to `O=S(=O)(CCCN(CCO)CCCCCCC1=C(c2ccc(F)c(O)c2)CCCc2c1ccc(O)c2F)CCCC(F)(F)C(F)(F)F` [Example 115, 4-Fluoro-8-(4-fluoro-3-hydroxyphenyl)-9-{6-[(2-hydroxyethyl){3-[(4,4,5,5,5-pentafluoropentyl)sulphonyl]propyl}amino]hexyl}-6,7-dihydro-5H-benzo[7]annulen-3-ol], for which, at oestrogen receptor (ER), the half-inhibitory concentration (IC50) worked out at 12 nM. The same measure, in the same setting: in the case of `CN(CCCCCCC1=C(c2ccc(F)c(O)c2)CCCc2c1ccc(O)c2F)CCCS(=O)(=O)CCC(F)(F)C(F)(F)F` [Example 116, 4-Fluoro-8-(4-fluoro-3-hydroxyphenyl)-9-[6-(methyl{3-[(3,3,4,4,4-pentafluorobutyl)sulphonyl]propyl}amino)hexyl]-6,7-dihydro-5H-benzo[7]annulen-3-ol] it was 34 nM; in that of `CN(CCCCCCC1=C(c2ccc(F)c(O)c2)CCCc2c1ccc(O)c2F)CCCCS(=O)(=O)CCCC(F)(F)C(F)(F)F` [Example 117, 4-Fluoro-8-(4-fluoro-3-hydroxyphenyl)-9-[6-(methyl{4-[(4,4,5,5,5-pentafluoropentyl)sulphonyl]butyl}amino)hexyl]-6,7-dihydro-5H-benzo[7]annulen-3-ol], 11 nM. Still for that read-out and setting: in the case of `CN(CCCCCCC1=C(c2ccc(F)c(O)c2)CCCc2c1ccc(O)c2F)CCCCS(=O)(=O)CCCC(F)(F)F` [Example 118, 4-Fluoro-8-(4-fluoro-3-hydroxyphenyl)-9-[6-(methyl{4-[(4,4,4-trifluorobutyl)sulphonyl]butyl}amino)hexyl]-6,7-dihydro-5H-benzo[7]annulen-3-ol] it was 9 nM; in that of `CN(CCCCCCC1=C(c2ccc(F)c(O)c2)CCCc2c1ccc(O)c2F)CCCCS(=O)(=O)CCC(F)(F)F` [Example 119, 4-Fluoro-8-(4-fluoro-3-hydroxyphenyl)-9-[6-(methyl{4-[(3,3,3-trifluoropropyl)sulphonyl]butyl}amino)hexyl]-6,7-dihydro-5H-benzo[7]annulen-3-ol], 7 nM; in that of `CN(CCCCCCC1=C(c2ccc(F)c(O)c2)CCCc2cc(O)c(F)cc21)CCCCS(=O)(=O)CCCC(F)(F)C(F)(F)F` [Example 121, 2-Fluoro-8-(4-fluoro-3-hydroxyphenyl)-9-[6-(methyl{4-[(4,4,5,5,5-pentafluoropentyl)sulphonyl]butyl}amino)hexyl]-6,7-dihydro-5H-benzo[7]annulen-3-ol], 7 nM. Take `CN(CCCCCCC1=C(c2ccc(F)c(O)c2)CCCc2cc(O)c(F)cc21)CCCS(=O)(=O)CCC(F)(F)C(F)(F)F` [Example 123, 2-Fluoro-8-(4-fluoro-3-hydroxyphenyl)-9-[6-(methyl{3-[(3,3,4,4,4-pentafluorobutyl)sulphonyl]propyl}amino)hexyl]-6,7-dihydro-5H-benzo[7]annulen-3-ol]: on oestrogen receptor (ER), the IC50 is 11 nM. The same measure, in the same setting: in the case of `CN(CCCCCCC1=C(c2ccc(F)c(O)c2)CCCc2cc(O)c(F)cc21)CCCS(=O)(=O)CCC(F)(F)F` [Example 126, 2-Fluoro-8-(4-fluoro-3-hydroxyphenyl)-9-[6-(methyl{3-[(3,3,3-trifluoropropyl)sulphonyl]propyl}amino)hexyl]-6,7-dihydro-5H-benzo[7]annulen-3-ol] it was 32 nM. Take `CN(CCCCCCC1=C(c2ccc(F)c(O)c2)CCCc2cc(O)c(F)cc21)CCCS(=O)(=O)CCCC(F)(F)F` [Example 127, 2-Fluoro-8-(4-fluoro-3-hydroxyphenyl)-9-[6-(methyl{3-[(4,4,4-trifluorobutyl)sulphonyl]propyl}amino)hexyl]-6,7-dihydro-5H-benzo[7]annulen-3-ol]: the concentration for half-maximal inhibition (IC50) on oestrogen receptor (ER) worked out at 6 nM. `CN(CCCCCCC1=C(c2ccc(F)c(O)c2)CCCc2cc(O)c(F)cc21)CCCCS(=O)(=O)CCCC(F)(F)F` [Example 128, 2-Fluoro-8-(4-fluoro-3-hydroxyphenyl)-9-[6-(methyl{4-[(4,4,4-trifluorobutyl)sulphonyl]butyl}amino)hexyl]-6,7-dihydro-5H-benzo[7]annulen-3-ol]: the IC50 at oestrogen receptor (ER) came out at 5 nM.
